PubChem BioAssay (NCI)
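96-well plates; 48 h exposure; 5 concentrations. Endpoints by linear interpolation between flanking doses. Not reached: highest tested concentration assigned. Abbreviation: GI50, concentration required for 50% inhibition of growth. At the TGI there is no net growth.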

Tests used:
Assay in all cases: NCI-60 cell line screen, 48 h
KM12 colon = system: KM12 colon
SNB-75 CNS = system: SNB-75 CNS
NCI-H226 lung = system: NCI-H226 lung
SF-539 CNS = system: SF-539 CNS
SK-MEL-28 melanoma = system: SK-MEL-28 melanoma
ACHN renal = system: ACHN renal
OVCAR-8 ovarian = system: OVCAR-8 ovarian
HS 578T breast = system: HS 578T breast
MCF7 breast = system: MCF7 breast
SK-MEL-5 melanoma = system: SK-MEL-5 melanoma
786-0 renal = system: 786-0 renal
HOP-62 NSCLC = system: HOP-62 NSCLC
CAKI-1 renal = system: CAKI-1 renal
TK-10 renal = system: TK-10 renal
HT29 colon = system: HT29 colon
MDA-MB-231 breast = system: MDA-MB-231 breast
SNB-19 CNS = system: SNB-19 CNS
SK-MEL-2 melanoma = system: SK-MEL-2 melanoma
SK-OV-3 ovarian = system: SK-OV-3 ovarian
OVCAR-3 ovarian = system: OVCAR-3 ovarian
M14 melanoma = system: M14 melanoma
MALME-3M melanoma = system: MALME-3M melanoma
HCT-15 colon = system: HCT-15 colon
EKVX NSCLC = system: EKVX NSCLC
A549 NSCLC = system: A549 NSCLC
BT-549 breast = system: BT-549 breast
RPMI-8226 leukemia = system: RPMI-8226 leukemia
OVCAR-5 ovarian = system: OVCAR-5 ovarian
PC-3 prostate = system: PC-3 prostate
SN12C renal = system: SN12C renal
MOLT-4 leukemia = system: MOLT-4 leukemia
UO-31 renal = system: UO-31 renal
T-47D breast = system: T-47D breast
DU-145 prostate = system: DU-145 prostate
HOP-92 NSCLC = system: HOP-92 NSCLC
RXF 393 renal = system: RXF 393 renal
SR leukemia = system: SR leukemia
MDA-MB-435 = system: MDA-MB-435
IGROV1 ovarian = system: IGROV1 ovarian
LOX IMVI melanoma = system: LOX IMVI melanoma
SW-620 colon = system: SW-620 colon
NCI-H522 lung = system: NCI-H522 lung
NCI-H23 lung = system: NCI-H23 lung
A498 renal = system: A498 renal
NCI-H460 lung = system: NCI-H460 lung
HL-60(TB) leukemia = system: HL-60(TB) leukemia
U251 CNS = system: U251 CNS
CCRF-CEM leukemia = system: CCRF-CEM leukemia
MDA-MB-468 breast = system: MDA-MB-468 breast
HCT-116 colon = system: HCT-116 colon
UACC-257 melanoma = system: UACC-257 melanoma
OVCAR-4 ovarian = system: OVCAR-4 ovarian
SF-268 CNS = system: SF-268 CNS
UACC-62 melanoma = system: UACC-62 melanoma
K-562 leukemia = system: K-562 leukemia
HCC-2998 colon = system: HCC-2998 colon
SF-295 CNS = system: SF-295 CNS
COLO 205 colon = system: COLO 205 colon

Q: How did the GI50 (KM12 colon) turn out when `O=C1Nc2cc(Cl)ccc2/C1=C/c1cccc(OCc2ccccn2)c1` was run?
A: 3.77 µM

Q: And the TGI (KM12 colon)?
A: 87.4 µM

Q: And the GI50 (SNB-75 CNS)?
A: 3.05 µM

Q: What about the TGI (SNB-75 CNS) of the same compound?
A: 38.8 µM

Q: What about the GI50 (NCI-H226 lung) of the same compound?
A: 11.3 µM

Q: And the TGI (NCI-H226 lung)?
A: 70.4 µM

Q: What about the GI50 (SF-539 CNS) of the same compound?
A: 2.63 µM

Q: What about the TGI (SF-539 CNS) of the same compound?
A: 8.05 µM

Q: What about the GI50 (SK-MEL-28 melanoma) of the same compound?
A: 5.66 µM

Q: And the TGI (SK-MEL-28 melanoma)?
A: 32.3 µM

Q: What about the GI50 (ACHN renal) of the same compound?
A: 6.07 µM

Q: And the TGI (ACHN renal)?
A: 19.9 µM

Q: What about the GI50 (OVCAR-8 ovarian) of the same compound?
A: 3.79 µM

Q: What about the TGI (OVCAR-8 ovarian) of the same compound?
A: 16.3 µM

Q: What about the GI50 (HS 578T breast) of the same compound?
A: 2.01 µM

Q: And the TGI (HS 578T breast)?
A: 6.72 µM

Q: And the GI50 (MCF7 breast)?
A: 1.93 µM

Q: What about the TGI (MCF7 breast) of the same compound?
A: 11.4 µM

Q: And the GI50 (SK-MEL-5 melanoma)?
A: 2.81 µM

Q: What about the TGI (SK-MEL-5 melanoma) of the same compound?
A: 13.4 µM

Q: What about the GI50 (786-0 renal) of the same compound?
A: 14 µM

Q: And the TGI (786-0 renal)?
A: 28.9 µM

Q: And the GI50 (HOP-62 NSCLC)?
A: 6.95 µM

Q: And the TGI (HOP-62 NSCLC)?
A: 25 µM

Q: And the GI50 (CAKI-1 renal)?
A: 2.73 µM

Q: And the TGI (CAKI-1 renal)?
A: 14.1 µM

Q: And the GI50 (TK-10 renal)?
A: 15.4 µM

Q: And the TGI (TK-10 renal)?
A: 34.7 µM

Q: And the GI50 (HT29 colon)?
A: 4.47 µM

Q: What about the TGI (HT29 colon) of the same compound?
A: 19.4 µM

Q: And the GI50 (MDA-MB-231 breast)?
A: 2.46 µM

Q: What about the TGI (MDA-MB-231 breast) of the same compound?
A: 9.13 µM

Q: And the GI50 (SNB-19 CNS)?
A: 11 µM

Q: And the TGI (SNB-19 CNS)?
A: 27.8 µM

Q: What about the GI50 (SK-MEL-2 melanoma) of the same compound?
A: 2.9 µM

Q: And the TGI (SK-MEL-2 melanoma)?
A: 9.3 µM

Q: And the GI50 (SK-OV-3 ovarian)?
A: 10.3 µM

Q: What about the TGI (SK-OV-3 ovarian) of the same compound?
A: 26.8 µM

Q: And the GI50 (OVCAR-3 ovarian)?
A: 3.33 µM

Q: And the TGI (OVCAR-3 ovarian)?
A: 16.2 µM

Q: And the GI50 (M14 melanoma)?
A: 4.43 µM

Q: And the TGI (M14 melanoma)?
A: 16.8 µM

Q: What about the GI50 (MALME-3M melanoma) of the same compound?
A: 4.23 µM

Q: And the TGI (MALME-3M melanoma)?
A: 46.6 µM

Q: And the GI50 (HCT-15 colon)?
A: 2.71 µM

Q: What about the TGI (HCT-15 colon) of the same compound?
A: 16.1 µM

Q: What about the GI50 (EKVX NSCLC) of the same compound?
A: 5.41 µM

Q: And the TGI (EKVX NSCLC)?
A: 67.4 µM

Q: What about the GI50 (A549 NSCLC) of the same compound?
A: 13 µM

Q: And the TGI (A549 NSCLC)?
A: 62.2 µM

Q: And the GI50 (BT-549 breast)?
A: 3.92 µM

Q: And the TGI (BT-549 breast)?
A: 16.5 µM

Q: And the GI50 (RPMI-8226 leukemia)?
A: 2.93 µM

Q: And the TGI (RPMI-8226 leukemia)?
A: 40.3 µM

Q: And the GI50 (OVCAR-5 ovarian)?
A: 7.62 µM

Q: And the TGI (OVCAR-5 ovarian)?
A: 26.8 µM

Q: What about the GI50 (PC-3 prostate) of the same compound?
A: 5.52 µM

Q: And the TGI (PC-3 prostate)?
A: > 100 µM

Q: And the GI50 (SN12C renal)?
A: 6.38 µM

Q: What about the TGI (SN12C renal) of the same compound?
A: 26.1 µM

Q: And the GI50 (MOLT-4 leukemia)?
A: 3.02 µM

Q: What about the TGI (MOLT-4 leukemia) of the same compound?
A: 11.3 µM

Q: And the GI50 (UO-31 renal)?
A: 3.03 µM

Q: And the TGI (UO-31 renal)?
A: 25 µM

Q: What about the GI50 (T-47D breast) of the same compound?
A: 3.01 µM

Q: What about the TGI (T-47D breast) of the same compound?
A: 22.6 µM

Q: What about the GI50 (DU-145 prostate) of the same compound?
A: 10.7 µM

Q: And the TGI (DU-145 prostate)?
A: > 100 µM

Q: What about the GI50 (HOP-92 NSCLC) of the same compound?
A: 1.85 µM

Q: What about the TGI (HOP-92 NSCLC) of the same compound?
A: 8.15 µM

Q: And the GI50 (RXF 393 renal)?
A: 3.08 µM

Q: What about the TGI (RXF 393 renal) of the same compound?
A: 14.5 µM

Q: What about the GI50 (SR leukemia) of the same compound?
A: 2.58 µM

Q: And the TGI (SR leukemia)?
A: 10.3 µM

Q: What about the GI50 (MDA-MB-435) of the same compound?
A: 1.92 µM

Q: And the TGI (MDA-MB-435)?
A: 4.25 µM

Q: And the GI50 (IGROV1 ovarian)?
A: 3.89 µM

Q: What about the TGI (IGROV1 ovarian) of the same compound?
A: 22.9 µM

Q: What about the GI50 (LOX IMVI melanoma) of the same compound?
A: 2.06 µM

Q: And the TGI (LOX IMVI melanoma)?
A: 4.92 µM

Q: And the GI50 (SW-620 colon)?
A: 3.1 µM

Q: What about the TGI (SW-620 colon) of the same compound?
A: 14.3 µM

Q: What about the GI50 (NCI-H522 lung) of the same compound?
A: 2.43 µM

Q: What about the TGI (NCI-H522 lung) of the same compound?
A: 6.63 µM

Q: What about the GI50 (NCI-H23 lung) of the same compound?
A: 3.39 µM

Q: And the TGI (NCI-H23 lung)?
A: 16 µM

Q: And the GI50 (A498 renal)?
A: 22.1 µM

Q: And the TGI (A498 renal)?
A: 76.9 µM

Q: And the GI50 (NCI-H460 lung)?
A: 3.15 µM

Q: And the TGI (NCI-H460 lung)?
A: 12.3 µM

Q: And the GI50 (HL-60(TB) leukemia)?
A: 2.13 µM

Q: What about the TGI (HL-60(TB) leukemia) of the same compound?
A: 5.1 µM

Q: What about the GI50 (U251 CNS) of the same compound?
A: 4.21 µM

Q: What about the TGI (U251 CNS) of the same compound?
A: 15.4 µM

Q: What about the GI50 (CCRF-CEM leukemia) of the same compound?
A: 3.1 µM

Q: And the TGI (CCRF-CEM leukemia)?
A: > 100 µM

Q: What about the GI50 (MDA-MB-468 breast) of the same compound?
A: 2.54 µM

Q: And the TGI (MDA-MB-468 breast)?
A: 9.08 µM

Q: And the GI50 (HCT-116 colon)?
A: 3.07 µM

Q: What about the TGI (HCT-116 colon) of the same compound?
A: 10.5 µM

Q: And the GI50 (UACC-257 melanoma)?
A: 7.63 µM

Q: And the TGI (UACC-257 melanoma)?
A: > 100 µM

Q: And the GI50 (OVCAR-4 ovarian)?
A: 5.73 µM

Q: And the TGI (OVCAR-4 ovarian)?
A: 35.5 µM

Q: What about the GI50 (SF-268 CNS) of the same compound?
A: 4.82 µM

Q: And the TGI (SF-268 CNS)?
A: > 100 µM

Q: What about the GI50 (UACC-62 melanoma) of the same compound?
A: 2.7 µM

Q: What about the TGI (UACC-62 melanoma) of the same compound?
A: 13.9 µM

Q: What about the GI50 (K-562 leukemia) of the same compound?
A: 2.82 µM

Q: And the TGI (K-562 leukemia)?
A: > 100 µM

Q: What about the GI50 (HCC-2998 colon) of the same compound?
A: 11.4 µM

Q: And the TGI (HCC-2998 colon)?
A: 26.2 µM

Q: What about the GI50 (SF-295 CNS) of the same compound?
A: 5.69 µM

Q: And the TGI (SF-295 CNS)?
A: 25 µM

Q: What about the GI50 (COLO 205 colon) of the same compound?
A: 10.5 µM

Q: What about the TGI (COLO 205 colon) of the same compound?
A: 22.2 µM
